Assay results as given in patent EP1172442A1, “VITAMIN D DERIVATIVES AND PROCESS FOR PRODUCING THE SAME” (MERCIAN CORPORATION, priority 1999, dated 2000).

Key:
[1] = system: VDR (chicken small intestine receptor); assay: Binding ability to vitamin D receptor (VDR), radio receptor assay (RRA), competition with 3H-1,25(OH)2D3; details: relative value of B/B0 50% value, 1,25(OH)2D3 taken to be 100; 4°C for 3 hours
Protocol: Binding ability to VDR was examined by the following radio receptor assay (RRA) method.
1,25(OH)2D3 and each specimen were serially diluted at from 10^-11 M to 10^-6 M. 20µL of a [26,27-^3H]-1,25-dihydroxyvitamin D3 (^3H-1,25(OH)2D3) solution and 60 µL of 1,25(OH)2D3 or each specimen solution were added in a small test tube, and 0.5 mL of a VDR (chicken small intestine receptor) solution was added and mixed, and then allowed to stand at 4°C for 3 hours. Then, after 0.125 mL of a dextran-active carbon suspension was added and mixed, the mixture was allowed to stand on ice for 30 minutes, ^3H-1,25(OH)2D3 unbound to VDR was removed by centrifugation at 3000 rpm for 15 minutes, and then the quantity of ^3H-1,25 (OH)2D3 bound to VDR was measured using 0.5 mL of the supernatant.
The binding ability to VDR of each specimen was evaluated by calculating and comparing the B/B0 50% value. […] The VDR binding ability was shown in Table 1 as a relative value of each specimen when B/B0 50% value of 1,25(OH)2D3 is taken to be 100.

[2] = system: DBP (rat serum diluted with a barbital acetate buffer); assay: Binding ability to vitamin D-bound protein (DBP), competitive protein binding assay (CPBA), competition with 3H-25(OH)D3; details: relative value of B/B0 50% value, 1,25(OH)2D3 taken to be 100; 4°C for 1 hour
Protocol: The binding ability to DBP was evaluated using the following competitive protein binding assay (CPBA). 1,25(OH)2D3 and each specimen were diluted to concentrations from 10^-11 M to 10^-5 M. 50 µL of a [26,27-^3H]-25-hydroxyvitamin D3 (^3H-25(OH)D3) solution and 100 µL of 1,25(OH)2D3 or each specimen solution were placed in a small test tube, and 1 mL of a DBP (rat serum diluted with a barbital acetate buffer) solution was added and mixed, and then allowed to stand at 4°C for 1 hour. Then, after 0.5 mL of a dextran-active carbon suspension was added and mixed, the mixture was allowed to stand on ice for 10 minutes, ^3H-25(OH)D3 unbound to DBP was removed by centrifugation at 3000 rpm for 15 minutes, and then the quantity of ^3H-25(OH)D3 bound to DBP was measured using 1 mL of the supernatant.
The binding ability to DBP of each specimen was evaluated by calculating and comparing the B/B0 50% value.

Row | Binding ability to VDR [1] | Binding ability to DBP [2] | Compound
1 | 81.860 | 16.633 | C=C1CC[C@H](O)C(F)(F)/C1=C/C=C1\CCC[C@]2(C)[C@@H]([C@H](C)CCC(O)C(C)C)CC[C@@H]12 (stereo partly shown) [Example 5(1), 4,4-difluoro-24-hydroxyvitamin D3]
2 | 29.129 | 35.257 | CC(CO)CCC[C@@H](C)[C@H]1CC[C@H]2/C(=C/C=C3/C[C@@H](O)C[C@H](O)/C3=C\F)CCC[C@]12C (stereo partly drawn) [Example 4(3), 19-fluoro-1α,26-dihydroxyvitamin D3]
3 | 107.557 | 168.529 | C=C1/C(=C\C=C2/CCC[C@]3(C)[C@@H]([C@H](C)CCCC(C)CO)CC[C@@H]23)C[C@@H](O)C[C@@H]1O (stereo partly drawn) [Example 2, 1α,26-dihydroxyvitamin D3]
4 | 72.878 | 23.665 | CC(C)C(O)CC[C@@H](C)[C@H]1CC[C@H]2/C(=C/C=C3/C[C@@H](O)C[C@H](O)/C3=C\F)CCC[C@]12C (stereo partly drawn) [Example 4(1), 19-fluoro-1α,24-dihydroxyvitamin D3]
5 | 62.386 | 35.792 | C[C@H](CCCC(C)(C)O)[C@H]1CC[C@H]2/C(=C/C=C3/C[C@@H](O)C[C@H](O)/C3=C\F)CCC[C@]12C [Example 4(2), 19-fluoro-1α,25-dihydroxyvitamin D3]
6 | 32.480 | 11433.718 | C=C1C[C@@H](O)[C@H](O)C/C1=C/C=C1\CCC[C@]2(C)[C@@H]([C@H](C)CCCC(C)(C)O)CC[C@@H]12 [Example 1(1), 2α,25-dihydroxyvitamin D3]
7 | 92.716 | 26.684 | C=C1/C(=C\C=C2/CCC[C@]3(C)[C@@H]([C@H](C)CCCC(C)(C)O)CC[C@@H]23)C(F)(F)[C@@H](O)C[C@@H]1O [Example 6(2), 4,4-difluoro-1α,25-dihydroxyvitamin D3]
8 | 34.067 | 28.106 | C=C1CC[C@H](O)C(F)(F)/C1=C/C=C1\CCC[C@]2(C)[C@@H]([C@H](C)CCCC(C)CO)CC[C@@H]12 (stereo partly shown) [Example 5(3), 4,4-Difluoro-26-hydroxyvitamin D3]
